The test system of series [1] is Phaeosphaeria nodorum (Septoria nodorum). The experiment in a line: Phaeosphaeria nodorum (Septoria nodorum) / wheat / leaf disc preventative (glume blotch). The series is classed as in vivo. The conditions noted are these: Parastagonospora nodorum, foliar, wheat leaf segments cv Kanzler, inoculated 2 days after application, assessed 5-7 days after application, read-out: disease control. The procedure:
5. Phaeosphaeria nodorum (Septoria nodorum)/Wheat/Leaf Disc Preventative (Glume Blotch): Wheat leaf segments (cv) Kanzler were placed on agar in a 24-well plate and sprayed with formulated test compound diluted in water at an application rate of 200 ppm. The leaf disks were inoculated with a spore suspension of the fungus 2 days after application. The inoculated test leaf disks were incubated at 20° C. and 75% relative humidity under a light regime of 12/12 h (light/dark) in a climate cabinet and the activity of a compound was assessed as percent disease control compared to untreated when an appropriate level of disease damage appears in untreated check leaf disks (5-7 days after application).

The test system of series [2] is Mycosphaerella graminicola (Septoria tritici). The experiment in a line: Mycosphaerella graminicola (Septoria tritici) / liquid culture (Septoria blotch). The format is cell-based. The conditions noted are these: Zymoseptoria tritici, PDB potato dextrose broth, 24° C., 4-5 days after application, read-out: disease control (inhibition of growth determined photometrically). Put shortly:
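Conidia from cryostorage were suspended in potato dextrose broth and added to test compound in DMSO at 200 ppm in microtiter wells. Plates were incubated at 24° C and growth inhibition measured photometrically 4-5 days after application.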

Series [3] has as its system Monographella nivalis (Microdochium nivale). The experiment in a line: Monographella nivalis (Microdochium nivale) / liquid culture (foot rot cereals). The series is classed as cell-based. The conditions noted are these: PDB potato dextrose broth, 24° C., 4-5 days after application, read-out: disease control (inhibition of growth determined photometrically).
The subject of series [4] is Plasmopara viticola. The experiment in a line: whole plant or invertebrate. The format is in vivo. The conditions noted are these: foliar, read-out: disease control.
Series [5] relates to Puccinia recondita f. sp. tritici. The series can be described thus: Puccinia recondita f. sp. tritici / wheat / leaf disc curative (brown rust). The format is in vivo. The conditions noted are these: foliar, 192 h, wheat leaf segments, applied one day after inoculation, assessed 8 dpi, read-out: disease control. The procedure: 4. Puccinia recondita f. sp. tritici/Wheat/Leaf Disc Curative (Brown Rust) Wheat leaf segments are placed on agar in multiwell plates (24-well format). The leaf disks are then inoculated with a spore suspension of the fungus. One day after inoculation the test solution is applied. After appropriate incubation the activity of a compound is assessed 8 dpi (days after inoculation) as curative fungicidal activity. Dose range: 200-22 ppm.

For series [6], the system named is Pythium ultimum. The experiment in a line: Pythium ultimum / liquid culture (seedling damping off). The series is classed as cell-based. The conditions noted are these: Globisporangium ultimum; 200 ppm; potato dextrose broth, 24° C., 2-3 days after application; read-out: disease control (inhibition of growth determined photometrically).
Series [7] has as its system Glomerella lagenarium (Colletotrichum lagenarium). The series can be described thus: Glomerella lagenarium (Colletotrichum lagenarium) / liquid culture (anthracnose). The format is cell-based. The conditions noted are these: Colletotrichum orbiculare, PDB potato dextrose broth, 24° C., 3-4 days after application, read-out: disease control (inhibition of growth measured photometrically). A digest of the protocol:
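Conidia of G. lagenarium from cryogenic storage were suspended in potato dextrose broth and added to test compound in DMSO at 200 ppm. Plates were incubated at 24° C, and growth inhibition was read photometrically 3-4 days after application.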

In series [8] the test system is Mycosphaerella arachidis (Cercospora arachidicola). The series can be described thus: Mycosphaerella arachidis (Cercospora arachidicola) / liquid culture (early leaf spot). The conditions noted are these: PDB potato dextrose broth, 24° C., 4-5 days after application, read-out: disease control (inhibition of growth determined photometrically). The series is classed as cell-based. A digest of the protocol:
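Conidia from cryogenic storage mixed into potato dextrose broth and added to compound at 200 ppm in DMSO. Incubation at 24° C.; growth inhibition read photometrically 4-5 days after application.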

Series [9] has as its system Gaeumannomyces graminis. The experiment in a line: Gaeumannomyces graminis / liquid culture (take-all of cereals). The series is classed as cell-based. The conditions noted are these: PDB potato dextrose broth, 24° C., 4-5 days after application, read-out: disease control (inhibition of growth determined photometrically). A digest of the protocol: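 Cryo-stored mycelial fragments in potato dextrose broth exposed to compound in DMSO at 200 ppm. Incubated at 24 °C; growth inhibition read photometrically 4–5 days after application.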

Series [10] deals with Fusarium culmorum. The series can be described thus: microbe, parasite or virus in culture. The format is cell-based. The conditions noted are these: read-out: disease control (inhibition of growth determined visually).
The subject of series [11] is Thanatephorus cucumeris (Rhizoctonia solani). The experiment in a line: Thanatephorus cucumeris (Rhizoctonia solani) / liquid culture (foot rot, damping-off). The series is classed as cell-based. The conditions noted are these: PDB potato dextrose broth, 24° C., 3-4 days after application, read-out: disease control (inhibition of growth determined photometrically). A digest of the protocol:
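Mycelial fragments from fresh liquid culture were suspended in potato dextrose broth and added to compound in DMSO at 200 ppm. After 3-4 days at 24 °C, growth inhibition was measured photometrically.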

Series [12] has as its system Sclerotinia sclerotiorum. The series can be described thus: Sclerotinia sclerotiorum / liquid culture (cottony rot). The format is cell-based. The conditions noted are these: PDB potato dextrose broth, 24° C., 3-4 days after application, read-out: disease control (inhibition of growth determined visually). How it is done:
18. Sclerotinia sclerotiorum/Liquid Culture (Cottony Rot): Mycelia fragments of a newly grown liquid culture of the fungus were directly mixed into nutrient broth (PDB potato dextrose broth). After placing a (DMSO) solution of the test compounds into a microtiter plate (96-well format) the nutrient broth containing the fungal material was added. The test plates were incubated at 24° C. and the inhibition of growth was determined visually 3-4 days after application.

In series [13] the test system is Puccinia recondita f. sp. tritici. The series can be described thus: Puccinia recondita f. sp. tritici / wheat / leaf disc preventative (brown rust). The format is in vivo. The conditions noted are these: foliar, wheat leaf segments cv Kanzler, inoculated 1 day after application, assessed 7-9 days after application, read-out: disease control. The source says: 3. Puccinia recondita f. sp. tritici/Wheat/Leaf Disc Preventative (Brown Rust): Wheat leaf segments cultivated variety (cv) Kanzler were placed on agar in 24-well plates and sprayed with formulated test compound diluted in water at an application rate of 200 ppm. The leaf disks were inoculated with a spore suspension of the fungus 1 day after application.

Series [14] concerns Botryotinia fuckeliana (Botrytis cinerea). The series can be described thus: Botryotinia fuckeliana (Botrytis cinerea) / liquid culture (gray mould). The series is classed as cell-based. The conditions noted are these: Vogels broth, 24° C., 3-4 days after application, read-out: disease control (inhibition of growth determined photometrically). How it is done:
10. Botryotinia fuckeliana (Botrytis cinerea)/Liquid Culture (Gray Mould): Conidia of the fungus from cryogenic storage were directly mixed into nutrient broth (Vogels broth). After placing a DMSO solution of test compound into a 96-well microtiter plate at an application rate of 200 ppm, the nutrient broth containing the fungal spores was added. The test plates were incubated at 24° C. and the inhibition of growth was determined photometrically 3-4 days after application.

Where only a bound is given, the exact number is not on record here.

Take `CC(C)c1ccc(NC(=O)c2cc3c(cc2Cl)COB3O)cc1` [Compound 110]: the pest or weed control at 200 ppm in series [1] is at least 80%. Moreover, the inhibition at 200 ppm in [2] and in series [3] was at least 80% each time.

Turning to `COC(=O)COC(=O)c1cc2c(cc1Cl)COB2O` [Compound 230], the pest or weed control at 200 ppm in [4] and in series [5] was at least 80% throughout. The inhibition at 200 ppm in [6], in series [7], in series [8], in series [2], in series [9] and in series [3] was at least 80% each time. The inhibition at 200 ppm in series [10], in series [11] and in series [12] was at least 80% in each case.

On to `O=C(OCC#Cc1ccccc1)c1cc2c(cc1Cl)COB2O` [Compound 232], for which the pest or weed control at 200 ppm in [4] and in series [1] was at least 80% each time. The inhibition at 200 ppm in series [6], in series [7], in series [8], in series [2], in series [9] and in series [3] was at least 80% each time. Further, the inhibition at 200 ppm in series [10] and in series [11] was at least 80% each time.

Regarding `C=C(C)COC(=O)c1ccc2c(c1)B(O)OC2` [Compound 339], the pest or weed control at 200 ppm in [4] and in series [5] was at least 80% in each case. Besides, the inhibition at 200 ppm in series [6], in series [7], in series [8], in series [2], in [9] and in series [3] was at least 80% throughout. In addition, the inhibition at 200 ppm in series [11] is at least 80%.

For the molecule `C=CCC(OC(=O)c1ccc2c(c1)B(O)OC2)C(=O)OC` (stereo not shown) [Compound 348], the pest or weed control at 200 ppm in series [4] and in series [5] was at least 80% in each case. The inhibition at 200 ppm in series [6], in [7], in series [8] and in series [11] was at least 80% throughout.

As to `C#CCCOC(=O)c1ccc2c(c1)B(O)OC2` [Compound 355], the pest or weed control at 200 ppm in series [4] and in [5] was at least 80% in each case. Further, the inhibition at 200 ppm in series [6], in series [7], in series [8], in series [2], in series [9] and in series [3] was at least 80% each time. Moreover, the inhibition at 200 ppm in series [11] was at least 80%.

For `COC(=O)COC(=O)c1ccc2c(c1)B(O)OC2` [Compound 356], the pest or weed control at 200 ppm in [4], in series [13] and in series [5] was at least 80% throughout. The inhibition at 200 ppm in series [6], in series [7], in series [8], in [9], in series [3] and in [11] was at least 80% each time.

With `O=C(OCC(F)F)c1ccc2c(c1)B(O)OC2` [Compound 365], the pest or weed control at 200 ppm in series [4] and in series [5] was at least 80% in each case. Further, the inhibition at 200 ppm in series [6], in series [8] and in [9] was at least 80% throughout.

`COC(=O)C(C)OC(=O)c1cc2c(cc1F)COB2O` (stereo not shown) [Compound 393]: the pest or weed control at 200 ppm in series [4] and in series [5] was at least 80% throughout. The inhibition at 200 ppm in [6], in series [9] and in series [11] was at least 80% throughout.

With `N#CCOC(=O)c1cc2c(cc1F)COB2O` [Compound 401], the pest or weed control at 200 ppm in series [4] and in series [5] was at least 80% in each case. In series [6], the inhibition at 200 ppm is at least 80%.

Take `C=C(C)COC(=O)c1cc2c(cc1F)COB2O` [Compound 402]: the pest or weed control at 200 ppm in series [5] is at least 80%. For the same molecule, the inhibition at 200 ppm in [6], in series [8], in series [2], in [9], in [3] and in [11] was at least 80% each time.

Regarding `C#CCCOC(=O)c1cc2c(cc1F)COB2O` [Compound 418], the pest or weed control at 200 ppm in [4] and in series [5] was at least 80% throughout. Besides, the inhibition at 200 ppm in [6], in series [8], in series [2], in series [9], in series [3] and in series [11] was at least 80% in each case. Besides, the inhibition at 200 ppm in [12] is at least 80%.

`COC(=O)COC(=O)c1cc2c(cc1F)COB2O` [Compound 419] displayed a melting point of 112 to 114 °C. Further, the pest or weed control at 200 ppm in series [4] is at least 80%. The pest or weed control at 200 ppm in series [13] was at least 80%. Further, the pest or weed control at 200 ppm in series [5] was at least 80%. Also, the inhibition at 200 ppm in series [6] is at least 80%. Further, in series [14], the inhibition at 200 ppm was at least 80%. Further, in series [7], the inhibition at 200 ppm is at least 80%. Further, the inhibition at 200 ppm in series [8] was at least 80%. Also, the inhibition at 200 ppm in series [2] was at least 80%. For the same molecule, the inhibition at 200 ppm in [9] was at least 80%. Also, in series [3], the inhibition at 200 ppm was at least 80%. The inhibition at 200 ppm in [10] was at least 80%. Besides, in [11], the inhibition at 200 ppm was at least 80%. For the same molecule, in series [12], the inhibition at 200 ppm is at least 80%.

`COC(=O)C#CCOC(=O)c1cc2c(cc1F)COB2O` [Compound 424] returned a melting point of 112 to 114 °C. In addition, the pest or weed control at 200 ppm in [4] was at least 80%. Also, the inhibition at 200 ppm in series [6] is at least 80%. Moreover, in series [14], the inhibition at 200 ppm is at least 80%. In series [7], the inhibition at 200 ppm is at least 80%. Further, the inhibition at 200 ppm in series [8] was at least 80%. The inhibition at 200 ppm in series [2] is at least 80%. Moreover, the inhibition at 200 ppm in series [9] is at least 80%. Also, the inhibition at 200 ppm in series [3] is at least 80%. Also, the inhibition at 200 ppm in series [10] was at least 80%. Further, the inhibition at 200 ppm in series [11] is at least 80%. Besides, the inhibition at 200 ppm in series [12] is at least 80%.
